Assays:
MERTK = target: T1, MERTK (Homo sapiens, UniProt Q12866); experiment: TR-FRET kinase activity assay, MERTK; type: biochemical; settings: for IC50: TR-FRET activity assay, ATP at Km, 60 minutes, read-out: Mer IC50; for Mer/Flt3 ratio (FLT3 IC50/Mer IC50): ratio calculated as FLT3 IC50/Mer IC50
T1 sequence (Q12866 21-999): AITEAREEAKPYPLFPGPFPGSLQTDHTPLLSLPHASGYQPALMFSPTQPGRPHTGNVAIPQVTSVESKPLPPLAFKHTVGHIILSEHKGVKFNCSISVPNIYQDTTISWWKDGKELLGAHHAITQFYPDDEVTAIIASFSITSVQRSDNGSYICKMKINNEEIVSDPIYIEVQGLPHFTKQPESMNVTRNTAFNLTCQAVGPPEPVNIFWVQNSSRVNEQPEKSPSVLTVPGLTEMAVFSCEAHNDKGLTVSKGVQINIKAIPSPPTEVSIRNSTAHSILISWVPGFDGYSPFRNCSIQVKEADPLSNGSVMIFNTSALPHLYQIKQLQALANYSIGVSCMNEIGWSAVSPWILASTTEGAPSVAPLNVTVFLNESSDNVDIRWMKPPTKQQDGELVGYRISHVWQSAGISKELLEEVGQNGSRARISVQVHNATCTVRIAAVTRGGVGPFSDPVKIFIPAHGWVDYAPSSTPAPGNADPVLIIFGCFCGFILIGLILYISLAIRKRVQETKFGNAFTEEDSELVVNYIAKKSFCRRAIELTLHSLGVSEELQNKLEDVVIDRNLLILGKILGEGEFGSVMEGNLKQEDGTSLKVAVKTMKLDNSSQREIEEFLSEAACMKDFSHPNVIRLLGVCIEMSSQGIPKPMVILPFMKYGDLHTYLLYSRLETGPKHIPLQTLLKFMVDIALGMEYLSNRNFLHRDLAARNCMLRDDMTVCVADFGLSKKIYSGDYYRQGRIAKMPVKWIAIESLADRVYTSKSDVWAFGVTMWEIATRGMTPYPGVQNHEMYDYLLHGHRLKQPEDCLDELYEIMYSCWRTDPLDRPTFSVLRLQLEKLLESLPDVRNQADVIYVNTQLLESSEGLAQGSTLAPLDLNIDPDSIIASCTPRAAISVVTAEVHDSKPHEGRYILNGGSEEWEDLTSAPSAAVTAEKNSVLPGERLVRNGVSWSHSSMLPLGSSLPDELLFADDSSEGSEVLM
In short: (§1)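 IC50s come from loss of TR-FRET between a Eu-labeled phospho-site antibody and fluorescent tyrosine-phosphorylated peptide. Kinase reactions, initiated with Km ATP, ran 60 min at RT at pH 7.5 before EDTA quench.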

TYRO3 = target: T2, TYRO3 (Homo sapiens, UniProt Q06418); experiment: TR-FRET kinase activity assay, TYRO3; type: biochemical; settings: ATP at Km, 60 minutes
T2 sequence (Q06418 41-890): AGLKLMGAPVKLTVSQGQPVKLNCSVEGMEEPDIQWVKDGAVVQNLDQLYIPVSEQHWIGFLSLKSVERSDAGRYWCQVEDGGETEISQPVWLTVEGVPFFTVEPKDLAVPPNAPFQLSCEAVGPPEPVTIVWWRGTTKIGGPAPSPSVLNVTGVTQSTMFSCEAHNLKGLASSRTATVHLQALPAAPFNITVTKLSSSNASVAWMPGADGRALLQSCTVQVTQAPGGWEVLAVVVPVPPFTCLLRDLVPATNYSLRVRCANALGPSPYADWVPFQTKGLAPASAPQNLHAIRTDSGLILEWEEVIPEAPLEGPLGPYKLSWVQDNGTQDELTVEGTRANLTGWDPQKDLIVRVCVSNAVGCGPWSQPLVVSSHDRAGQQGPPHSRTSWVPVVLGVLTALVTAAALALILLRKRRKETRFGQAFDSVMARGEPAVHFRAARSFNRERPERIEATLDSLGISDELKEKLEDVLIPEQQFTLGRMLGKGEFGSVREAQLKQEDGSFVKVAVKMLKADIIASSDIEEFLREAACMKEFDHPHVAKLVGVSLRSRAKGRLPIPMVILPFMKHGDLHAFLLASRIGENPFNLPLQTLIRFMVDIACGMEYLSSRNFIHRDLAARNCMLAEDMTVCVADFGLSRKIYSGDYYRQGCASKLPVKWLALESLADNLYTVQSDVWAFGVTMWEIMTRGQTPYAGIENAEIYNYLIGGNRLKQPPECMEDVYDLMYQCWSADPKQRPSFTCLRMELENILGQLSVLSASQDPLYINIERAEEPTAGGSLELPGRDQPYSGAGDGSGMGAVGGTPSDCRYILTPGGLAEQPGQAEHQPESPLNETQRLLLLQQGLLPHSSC
In short: as §1

| Structure (SMILES) | IC50 (MERTK) [µM] | Mer/Flt3 ratio (FLT3 IC50/Mer IC50) (MERTK) | IC50 (TYRO3) [µM] |
| --- | --- | --- | --- |
| C[C@H](CF)Nc1ncc2c(OC3CCOCC3)ncc([C@H]3CC[C@H](O)CC3)c2n1 [Compound 401] | ≤ 0.1 | +++ (a ratio of >100) | 0.1 to 1 |
| C[C@@H](CC(F)(F)F)Nc1ncc2c(O[C@H]3C[C@@H](CN4CCOCC4)C3)ncc([C@H]3CC[C@H](O)CC3)c2n1 [Compound 402] | ≤ 0.1 | +++ (a ratio of >100) | ≤ 0.1 |
| COC[C@H](C)Nc1ncc2c(C(F)(F)F)ncc([C@H]3CC[C@H](O)CC3)c2n1 [Compound 403] | 0.1 to 1 | ++ (a ratio of between 10 and 100) | 1 to 10 |
| CC1(Nc2ncc3c(OC4CCOCC4)ncc(-c4cccc(NS(C)(=O)=O)c4)c3n2)CC1 [Compound 404] | ≤ 0.1 | ++ (a ratio of between 10 and 100) | 0.1 to 1 |
| CC1(Nc2ncc3c(OC4CCOCC4)ncc(-c4cccc(S(=O)(=O)N5CCC5)c4)c3n2)CC1 [Compound 405] | ≤ 0.1 | +++ (a ratio of >100) | 0.1 to 1 |
| C[C@H](CC(F)(F)F)Nc1ncc2c(O[C@H]3C[C@@H](O)C3)ncc([C@H]3CC[C@H](O)CC3)c2n1 [Compound 406] | ≤ 0.1 | +++ (a ratio of >100) | ≤ 0.1 |
| C[C@@H](COC(F)F)Nc1ncc2c(O[C@H]3C[C@@H](O)C3)ncc([C@H]3CC[C@H](O)CC3)c2n1 [Compound 407] | ≤ 0.1 | +++ (a ratio of >100) | ≤ 0.1 |
| C[C@@H](CC(F)(F)F)Nc1ncc2c(O[C@H]3C[C@@H](N4CCOCC4)C3)ncc([C@H]3CC[C@H](O)CC3)c2n1 [Compound 408] | ≤ 0.1 | +++ (a ratio of >100) | ≤ 0.1 |
| C[C@@H](CC(F)(F)F)Nc1ncc2c(O[C@H]3C[C@@H](O)C3)ncc(-c3ccc(C4(C#N)CC4)cc3)c2n1 [Compound 409] | ≤ 0.1 | ++ (a ratio of between 10 and 100) | ≤ 0.1 |
| O=C(O)[C@H]1CC[C@H](Nc2ncc3c(OC4CCOCC4)ncc([C@H]4CC[C@H](O)CC4)c3n2)CC1 [Compound 410] | ≤ 0.1 | +++ (a ratio of >100) | 0.1 to 1 |
| C[C@H](Nc1ncc2c(O[C@H]3C[C@@H](O)C3)ncc([C@H]3CC[C@H](O)CC3)c2n1)C(F)F [Compound 411] | ≤ 0.1 | +++ (a ratio of >100) | ≤ 0.1 |
| C[C@@H](CC(F)(F)F)Nc1ncc2c(O[C@@H]3C[C@H]4CC[C@@H](C3)N4C[C@H]3CCCO3)ncc([C@H]3CC[C@H](O)CC3)c2n1 [Compound 412] | ≤ 0.1 | +++ (a ratio of >100) | ≤ 0.1 |
| C[C@@H](CC(F)(F)F)Nc1ncc2c(O[C@@H]3C[C@H]4CC[C@@H](C3)N4[C@H]3CCOC3)ncc([C@H]3CC[C@H](O)CC3)c2n1 [Compound 413] | ≤ 0.1 | +++ (a ratio of >100) | ≤ 0.1 |
| C[C@@H](CC(F)(F)F)Nc1ncc2c(O[C@@H]3C[C@H]4CC[C@@H](C3)N4C[C@H]3CCOC3)ncc([C@H]3CC[C@H](O)CC3)c2n1 [Compound 414] | ≤ 0.1 | +++ (a ratio of >100) | ≤ 0.1 |
| C[C@@H](CC(F)(F)F)Nc1ncc2c(O[C@@H]3C[C@H]4CC[C@@H](C3)N4[C@@H]3CCOC3)ncc([C@H]3CC[C@H](O)CC3)c2n1 [Compound 415] | ≤ 0.1 | +++ (a ratio of >100) | ≤ 0.1 |
| C[C@@H](CC(F)(F)F)Nc1ncc2c(O[C@@H]3C[C@H]4CC[C@@H](C3)N4C[C@@H]3CCOC3)ncc([C@H]3CC[C@H](O)CC3)c2n1 [Compound 416] | ≤ 0.1 | +++ (a ratio of >100) | ≤ 0.1 |
| CO[C@H]1C[C@@H]1Nc1ncc2c(O[C@H]3C[C@@H](O)C3)ncc([C@H]3CC[C@H](O)CC3)c2n1 [Compound 417] | ≤ 0.1 | +++ (a ratio of >100) | ≤ 0.1 |
| C[C@@H](CC(F)(F)F)Nc1ncc2c(OC3CC(C)(C)N(C[C@@H]4CCCO4)C(C)(C)C3)ncc([C@H]3CC[C@H](O)CC3)c2n1 [Compound 418] | ≤ 0.1 | +++ (a ratio of >100) | ≤ 0.1 |
| COC[C@H](C)Nc1ncc2c(O[C@H]3C[C@H](C(=O)N4CCN(C)CC4)C3)ncc([C@H]3CC[C@H](O)CC3)c2n1 [Compound 419] | ≤ 0.1 | +++ (a ratio of >100) | ≤ 0.1 |
| C[C@@H](CC(F)(F)F)Nc1ncc2c(O[C@H]3C[C@H](CN4CCOCC4)C3)ncc([C@H]3CC[C@H](O)CC3)c2n1 [Compound 420] | ≤ 0.1 | +++ (a ratio of >100) | ≤ 0.1 |
| C[C@@H](CC(F)(F)F)Nc1ncc2c(O[C@@H]3C[C@H]4CC[C@@H](C3)N4C[C@@H]3CCCO3)ncc([C@H]3CC[C@H](O)CC3)c2n1 [Compound 421] | ≤ 0.1 | +++ (a ratio of >100) | ≤ 0.1 |
| C[C@@H](CC(F)(F)F)Nc1ncc2c(O[C@H]3C[C@H](N4CCOCC4)C3)ncc([C@H]3CC[C@H](O)CC3)c2n1 [Compound 422] | ≤ 0.1 | +++ (a ratio of >100) | ≤ 0.1 |
| C[C@@H](CC(F)(F)F)Nc1ncc2c(O[C@H]3C[C@@H](O)C3)ncc([C@H]3CC[C@](C)(O)CC3)c2n1 [Compound 423] | ≤ 0.1 | +++ (a ratio of >100) | ≤ 0.1 |
| C[C@@H](CC(F)(F)F)Nc1ncc2c(O[C@H]3C[C@@H](O)C3)ncc([C@H]3CC[C@@](C)(O)CC3)c2n1 [Compound 424] | ≤ 0.1 | +++ (a ratio of >100) | ≤ 0.1 |

— patent publication US20200291018A1, “TAM KINASE INHIBITORS” (SYROS PHARMACEUTICALS, INC., priority 2017, published 2020)
